Reference: paper PMC5640644, “HDX reveals the conformational dynamics of DNA sequence specific VDR co-activator interactions” (Nature Communications, 2017)

Key:
TRPV6 = TRPV6 gene activation assay (TRPV6 mRNA, QuantiGene 2.0) in differentiated C2BBe1 cells; assay type: cell-based, human
Protocol: C2BBe1 (a clone of CaCO2) cells (CRL-2101, American Type Culture Collection, Manassas, VA) were maintained in DMEM (ATCC 30-2002) supplemented with 10% FBS and insulin-transferrin-selenium-G supplement (Invitrogen, Carlsbad, CA). For TRPV6 expression analysis, cells were plated in 96-well tissue culture treated plates (40,000 per well) in differentiation medium (DMEM containing 5% charcoal-stripped FBS and insulin-transferrin-sodium selenite supplement (ITS)). Cells were allowed to differentiate for 6 days with medium replacement every other day before compound treatment. The medium was removed, and serial dilutions of 1,25D3 or VDRMs in concentrations ranging from 10 μM to 2 nM in differentiation medium were added. After 24 h, the medium was removed, and cell plates were sealed and frozen at −80 °C until assayed. QuantiGene 2.0 Assay Kit (Affymetrix QS0009) was used to quantitate TRPV6 and housekeeping gene GUSB mRNA levels. Following the kit instructions, lysis buffer was added to the frozen cells and incubated briefly at 55 °C […]. Following an overnight incubation the capture plates were washed and the probes amplified following kit instructions. The resulting luminescence signal was detected on an Envision plate reader (Perkin Elmer). TRPV6 signal was normalized using the GUSB signal and the resulting data was fit to a 4-parameter logistic to determine EC50 values.

BGLAP = BGLAP gene activation assay (BGLAP mRNA, QuantiGene 2.0) in MG-63 cells; assay type: cell-based, human
Protocol: Human osteosarcoma cells MG-63, (CRL-1427, American Type Culture Collection (ATCC), Manassas, VA), were maintained in EMEM (ATCC 30–2003) + 10% FBS in 5% CO2. For bone gamma-carboxyglutamate protein (BGLAP) expression analysis MG-63 cells, suspended in EMEM (ATCC 30–2003) + 5% charcoal dextran treated FBS, were seeded onto 96-well tissue culture treated plates at 25,000 cells per well. After an overnight incubation the medium was removed and serial dilutions of VDRMs in concentrations ranging from 10 μM to 2 nM in EMEM (ATCC 30–2003) + 5% charcoal dextran treated FBS were added. Following a 24 h incubation the medium was removed and the plates were sealed and stored at −80 °C for later processing. QuantiGene 2.0 Assay Kit (Affymetrix QS0009) was used to quantitate BGLAP and the Housekeeping gene […] mRNA levels. Following the kit instructions, lysis buffer was added to the frozen cells and incubated briefly at 55 °C. A volume of 20 μl of BGLAP probeset (Affymetrix SA-10875-01) or 18 S (Affymetrix SA-10026) in blocking buffer was added to the provided capture plates before adding 80 μl of the cell lysate. The plates were sealed and incubated at 55 °C overnight. Following an overnight incubation the capture plates were washed and the probes amplified following kit instructions. The resulting luminescence signal was detected on an Envision (Perkin Elmer). BGLAP signal was normalized using the 18S signal and the resulting data was fit to a 4-parameter logistics to determine EC50.

WT Flag-h RXRα = molecular target: T1, WT Flag-h RXRα (human, UniProt P19793 1-462); test: native gel or EMSA; VDR and RXRα mixed at 1:1 molar ratio (about 10 μM); 6% DNA Retardation gel, 0.5X TBE, 150 V, room temperature; ethidium bromide and coomassie staining; conditions: both partners purified
T1 construct: human retinoid X receptor alpha (RXRα), full length; also called retinoid X receptor α; source: baculovirus system, purified (Flag, SEC)
T1 sequence (looked up): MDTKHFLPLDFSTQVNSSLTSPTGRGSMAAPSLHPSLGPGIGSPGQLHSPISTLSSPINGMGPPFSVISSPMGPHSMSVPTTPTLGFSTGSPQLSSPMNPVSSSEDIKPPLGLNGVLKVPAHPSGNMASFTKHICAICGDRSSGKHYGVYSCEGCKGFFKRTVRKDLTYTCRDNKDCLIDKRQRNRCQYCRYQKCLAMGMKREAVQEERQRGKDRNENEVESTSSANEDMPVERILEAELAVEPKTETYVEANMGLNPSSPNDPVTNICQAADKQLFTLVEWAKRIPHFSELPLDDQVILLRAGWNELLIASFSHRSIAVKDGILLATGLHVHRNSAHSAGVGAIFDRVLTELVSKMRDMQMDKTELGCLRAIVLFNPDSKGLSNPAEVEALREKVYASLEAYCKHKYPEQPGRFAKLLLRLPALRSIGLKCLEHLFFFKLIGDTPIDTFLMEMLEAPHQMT

**Q.** `C=C1/C(=C\C=C2/CCC[C@]3(C)[C@@H]([C@H](C)CCCC(C)(C)O)CC[C@@H]23)C[C@@H](O)C[C@@H]1O` [1,25D3, 1α,25-dihydroxyvitamin D3, reference compound] was tested. Which “Max. Stim., TRPV6 activation” value (TRPV6; C2BBe1 cells, fold change over DMSO normalized to 1,25D3 = 100%) did it give?
**A.** 100%

**Q.** What about the EC50 (TRPV6; Homo sapiens, C2BBe1 cells differentiated 6 days, 24 h, average of replicate runs) of the same molecule?
**A.** 9.81 nM

**Q.** And the EC50 (BGLAP; Homo sapiens, MG-63, 24 h, read-out: EC50, BGLAP activation)?
**A.** 4.1 nM

**Q.** What about the “Max. Stim., BGLAP activation” value (BGLAP; MG-63 cells, fold change over DMSO normalized to 1,25D3 = 100%) of the same molecule?
**A.** 100%

B1: Full-length WT His-hVDR (Δ (151–190)) (receptor, human, UniProt P11473 1-427, looked up)
chain: MEAMAASTSLPDPGDFDRNVPRICGVCGDRATGFHFNAMTCEGCKGFFRRSMKRKALFTCPFNGDCRITKDNRRHCQACRLKRCVDIGMMKEFILTDEEVQRKREMILKRKEEEALKDSLRPKLSEEQQRIIAILLDAHHKTYDPTYSDFITSSDMMDSSSFSNLDLSEEDSDDPSVTLELSQLSMLPHLADLVSYSIQKVIGFAKMIPGFRDLTSEDQIVLLKSSAIEVIMLRSNESFTMDDMSWTCGNQDYKYRVSDVTKAGHSLELIEPLIKFQVGLKKLNLHEEEHVLLMAICIVSPDRPGVQDAALIEAIQDRLSNTLQTYIRCRHPPPGSHLLYAKMIQKLADLRSLNEEHSKQYRCLSFQPECSMKLTPLVLEVFGNEIS
notes: human vitamin D receptor (VDR), full length with residues 151-190 deleted; also called vitamin D receptor; source: baculovirus system, purified (Ni-NTA, SEC)
**Q.** Does B1 bind (WT Flag-h RXRα)?
**A.** binds
